Data taken from patent publication US20240358721A1, “GASDERMIN-D INHIBITORS AND USES THEREOF FOR TREATING PULMONARY VASO-OCCLUSION” (UNIVERSITY OF PITTSBURGH-OF THE COMMONWEALTH SYSTEM OF …, priority 2021, published 2024).
Entries after “also recorded” stand apart in the source; their conditions may differ. Where a SMILES comes first, the peptide text is derived from it. The star is where a group is joined. Cbz = O=C(OCc1ccccc1)*; CH2F = FC*

Assays:
Assay type in all cases: in vivo, mouse
SCD-Selp−/− mice [1] = experiment: qFILM assessment of P-selectin-independent pulmonary vaso-occlusion in SCD-Selp−/− mice IV administered oxy-Hb; settings: IV 10 μmole/kg oxy-Hb with 10 mg/kg inhibitor vs oxy-Hb alone
Description: (§1) Quantitative fluorescence intravital lung microscopy (qFILM) was used to assess the absence or presence of platelet-neutrophil aggregate mediated pulmonary vaso-occlusion. Pulmonary microcirculation (pseudo-colored purple), neutrophils (red) and platelets (pseudo-colored green) were labeled in vivo by IV administration of FITC dextran, AF546-anti-Ly6G Ab and V450-anti-CD49b Ab, respectively. […] White arrows denote the direction of blood flow within the pulmonary arterioles. Alveoli are marked with asterisks. Scale bars 20 μm. The diameter of pulmonary arteriole in B-E is ˜22 μm, 32 μm, 31.5 μm, and 31 μm, respectively. […] Refer Online Data Supplement for details. […] The data for mice with SCD IV administered 10 oxy-Hb (n=5 mice; 75 FOVs) are included as black bars in FIGS. 1N and 1O for relative comparison. qFILM FOV size ˜65 536 μm^2. Data represent mean ±SE and are compared using Student t test. *P<0.05 (FIG. 1P) Schematic showing the main findings of the study. The sterile inflammatory milieu (DAMPs, IFN-I signaling, and ROS) in SCD promotes caspase-4 (humans) or caspase-11 (mouse)-dependent cleavage of neutrophil GSDMD into the active form GSDMD-NT, leading to the shedding of NETs in the liver microcirculation. Once shed, these NETs are carried by the blood as cNETs to the lung, where they promote neutrophil-platelet aggregation in the pulmonary arterioles, leading to PVO and lung injury (acute chest syndrome).
SCD-Selp^−/− mice were IV administered 10 μmole/kg oxy-Hb (10 oxy-Hb) without or with 10 mg/kg GSDMD inhibitor (Disulfiram). Quantitative fluorescence intravital lung microscopy (qFILM) was used to assess the absence or presence of pulmonary vasoocclusion using the same experimental scheme described in FIG. 1A. Pulmonary vasoocclusions (PVOs) were compared between treatment groups using following two parameters: Number of PVOs per Field of View (#PVOs/FOV) and number of large PVOs (with area>1000 μm^2) per FOV. […] The data for SCD mice IV administered 10 oxy-Hb (n=5 mice; 75 FOVs) is included as black bars in FIGS. 4A and 4B for relative comparison. FOV size˜65,536 μm^2. […]
(§2) (FIG. 5A) Experimental scheme: SCD or SCD-Selp^−/− mice were IV administered 10 μmole/kg oxy-Hb (10 oxy-Hb) without or with 10 mg/kg GSDMD inhibitors LDC75591 or Disulfiram. In FIGS. 5C-5D, venous blood was processed to generate PPP and cNETs detected in PPP using Imaging Flow Cytometry. Imaging Flow Cytometry data was quantified to estimate concentration of cNETs (#cNETs/μl of plasma). In FIGS. 5B, and 5E-5F, quantitative fluorescence intravital lung microscopy (qFILM) was used to detect arrival of circulating NETs (cNETs) within the lung microcirculation. Number of cNETs entering per FOV over a 1-minute duration (#cNETs/FOV/min) were quantified. […]

SCD-Selp−/− mice [2] = experiment: qFILM detection of circulating NETs arriving in the lung microcirculation, SCD-Selp−/− mice; settings: IV 10 μmole/kg oxy-Hb with 10 mg/kg inhibitor vs oxy-Hb alone, significant
Protocol: as §2, with “quantified. In FIGS. 5G-5J, qFILM was used to assess the absence or presence of pulmonary vaso-occlusion using the experimental strategy described in FIG. 1A. Pulmonary vaso-occlusions (PVOs) were compared between treatment groups using following two parameters: Number of PVOs per Field of View (#PVOs/FOV) and number of large PVOs (with area>1000 μm^2) per FOV.” for “quantified.”
Quantitative fluorescence intravital lung microscopy (qFILM) has been used widely for in vivo assessment of pulmonary vasoocclusion in mice with SCD [Bennewitz M F et al., (2017); Vats R, Brzoska T, Bennewitz M F, et al. (2020); Vats R, Tutuncuoglu E, Pradhan-Sundd T, Tejero J, Shaw G D, Sundd P. (2020); Bennewitz M F, Tutuncuoglu E, Gudapati S, et al. (2020)] […]

SCD mice = experiment: qFILM assessment of pulmonary vaso-occlusion in SCD mice IV administered oxy-Hb; settings: LDC7559 10 mg/kg, Z-VAD-FMK 0.004 μmol/kg; for Number of PVOs per Field of View (#PVOs/FOV) / number of large PVOs (with area>1000 μm^2) per FOV: IV 10 μmole/kg oxy-Hb with inhibitor vs oxy-Hb alone; for Number of PVOs per Field of View (#PVOs/FOV) / number of large PVOs (with area>1000 μm^2) per FOV / blood flow in the lung (rapidly transiting erythrocytes) / lung vaso-occlusion in representative qFILM images: NSA 20 mg/kg; for blood flow in the lung (rapidly transiting erythrocytes) / lung vaso-occlusion in representative qFILM images / large neutrophil-platelet aggregates occluding the arteriolar bottle-necks in the lung: IV 10 μmole/kg oxy-Hb with inhibitor; for large neutrophil-platelet aggregates occluding the arteriolar bottle-necks in the lung: Necrosulfonamide 20 mg/kg
Description: as §1
Intravital lung microscopy (experimental scheme shown in FIG. 1A) was conducted in live mice to assess whether preventing liver-to-lung embolization of cNETs by inhibiting or deleting GSDMD-signaling leads to amelioration of pulmonary vaso-occlusion. Although large neutrophil-platelet aggregates (marked with dotted ellipses) were seen occluding the arteriolar bottle-necks, leading to impaired blood flow in the lung of SCD mice IV administered 10 μmole/kg oxy-Hb (FIG. 1B), such aggregates were rare in the lung of SCD mice IV administered 10 μmole/kg oxy-Hb with 0.004 μmol/kg pan-caspase inhibitor Z-VAD-FMK (FIG. 1C) or 10 mg/kg GSDMD-NT inhibitor LDC7559 (FIG. 1D) or 20 mg/kg GSDMD-NT inhibitor Necrosulfonamide (FIG. 1E). […] The twofold higher dose of 20 μmole/kg IV oxy-Hb also led to the development of lung vaso-occlusion in WT but not Gsdmd^−/− mice (FIG. 2). […] P-selectin deficiency led to an approximately 50% reduction in pulmonary vaso-occlusion in SCD-Selp^−/− mice administered 10 μmole/kg IV oxy-Hb (FIG. 3), however, IV administration of oxy-Hb with GSDMD-NT inhibitor (LDC7559) led to further threefold (significant) reduction in pulmonary vaso-occlusions per FOV (FIGS. 1N and 4A, and FIG. 5) and absence of large pulmonary vaso-occlusions (area>1000 μm^2) per FOV (FIG. 10) in SCD-Selp^−/− mice.
Quantitative fluorescence intravital lung microscopy (qFILM) has been used widely for in vivo assessment of pulmonary vasoocclusion in mice with SCD [Bennewitz M F et al., (2017); Vats R, Brzoska T, Bennewitz M F, et al. (2020); Vats R, Tutuncuoglu E, Pradhan-Sundd T, Tejero J, Shaw G D, Sundd P. (2020); Bennewitz M F, Tutuncuoglu E, Gudapati S, et al. (2020)] In the current study, qFILM was used to assess pulmonary vaso-occlusion and detect NETs in the intact lung microcirculation of live mice following IV challenge with saline, oxy-hemoglobin (oxy-Hb), hemin, or lipo-polysaccharide with or without pretreatment with N-terminus active domain (GSDMD-NT) inhibitors LDC7559 [Sollberger G, Choidas A, Burn G L, et al. (2018)], NSA [Rathkey J K, Zhao J, Liu Z, et al. (2018)], Disulfiram [Hu J J, Liu X, Xia S, et al. (2020)], or the pan-caspase inhibitor Z-VAD-FMK [Sollberger G, Choidas A, Burn G L, et al. (2018)], haptoglobin [Belcher J D, Chen C, Nguyen J, et al. (2014)], or TLR4-inhibitor (TAK242) [Belcher J D, Chen C, Nguyen J, et al. (2014)]. qFILM was conducted with a Nikon multiphoton excitation fluorescence microscope and an APO LWD 25×water immersion objective with 1.1 NA. […]

SMILES	number of large PVOs (with area>1000 μm^2) per FOV (SCD-Selp−/− mice [1])	Number of PVOs per Field of View (#PVOs/FOV) (SCD-Selp−/− mice [1]; 10 mg/kg)	#cNETs/FOV/min in the lung, less than 10 oxy-Hb alone (SCD-Selp−/− mice [2])	Number of PVOs per Field of View (#PVOs/FOV) (SCD mice)	number of large PVOs (with area>1000 μm^2) per FOV (SCD mice)	Number of PVOs per Field of View (#PVOs/FOV) (SCD mice; listed as NSA)	number of large PVOs (with area>1000 μm^2) per FOV (SCD mice; listed as NSA)	blood flow in the lung (rapidly transiting erythrocytes) (SCD mice)	lung vaso-occlusion in representative qFILM images (SCD mice)	lung vaso-occlusion in representative qFILM images (SCD mice; listed as NSA)	large neutrophil-platelet aggregates occluding the arteriolar bottle-necks in the lung (SCD mice)
CCN(CC)C(=S)SSC(=S)N(CC)CC [Disulfiram, disulfiram]	absent	significantly reduced	4 folds								
COc1nccnc1NS(=O)(=O)c1ccc(NC(=O)/C=C/c2ccc([N+](=O)[O-])s2)cc1 [Necrosulfonamide, necrosulfonamide]				significantly reduced	significantly reduced	significantly less	significantly less	significantly improved	lack of pulmonary vaso-occlusion	absence of lung vaso-occlusion	rare
COC(=O)C[C@H](NC(=O)[C@H](C)NC(=O)[C@@H](NC(=O)OCc1ccccc1)C(C)C)C(=O)CF [Z-VAD-FMK] (Cbz-Val-Ala-Asp(OMe)-CH2F)				significantly less; also recorded: significantly reduced	significantly less; also recorded: significantly reduced			significantly improved	absence of lung vaso-occlusion; also recorded: lack of pulmonary vaso-occlusion		rare
